Experimental data taken from US5919896A, “PF4A receptor” (Genentech, Inc., priority 1997, dated 1999).

Tests used:
[1] = tested on: receptor of FIG. 5 (8rr.9); assay: Response of recombinant cells bearing the FIG. 5 receptor to PF4 superfamily ligands; format: cell-based, human; settings: preliminary experiments
[2] = tested on: receptor of FIG. 4 (8rr.20.15); assay: Response of recombinant cells bearing the FIG. 4 receptor to PF4 superfamily ligands; format: cell-based, human; settings: preliminary experiments
[3] = tested on: human IL-8 receptor (clone pRK5B.il8r1.1); assay: Flow cytometry intracellular Ca++ response of 293 cells transfected with IL-8 receptor; format: cell-based
Procedure: (§1) After two days, the cells were loaded with 2 μM indo-1 acetoxymethyl ester in RPMI medium (Sigma) for 30 min at 37° C. Intracellular Ca^++ was measured with a Coulter 753 flow cytometer using the ratio of 405 and 525 nm fluorescence. Grynkiewicz et al., J. Biol. Chem., 260: 3440-3450 (1985).
(§2) No response is found to fMLP. […] Oppenheim et al., supra.

IL8R-A = settings: Holmes et al., cited from earlier work
[4] = tested on: IL-8 receptor (clone pRK5B.il8r1.1) on transfected COS cells; assay: 125I-IL-8 binding competition on transfected COS cells; set-up: species or system human; settings: COS cells transfected with clone pRK5B.il8r1.1
Procedure: Samanta et al., supra, Besemer et al., supra, Grob et al., supra.
Binding competition was performed with electroporated COS-7 cells after 1 day of expression in 6-well dishes (about 175,000 cells/dish). […] Wells were then washed, the cells harvested with trypsin, and counted. […] Neutrophil binding was performed as described (Pacholczyk et al., supra) but for 2 hr at 4° C.

human fMLP receptor = assay: Flow cytometry intracellular Ca++ response of 293 cells transfected with fMLP receptor; format: cell-based; settings: 293 cells transfected with human fMLP receptor
Procedure: as §1
(§3) Oppenheim et al., supra; Korchak et al., J. Biol Chem., 259: 4076-4082 (1984). […] Oppenheim et al., supra.

expressed IL-8 receptor = tested on: expressed IL-8 receptor
Source text: as §3

[5] = tested on: expressed human fMLP receptor; assay: 125I-IL-8 binding to the expressed human fMLP receptor
Source text: as §2

[6] = tested on: Murphy and Tiffany receptor; assay: Ligand affinity of the Murphy and Tiffany receptor (studies herein); format: binding, human
Source text: Murphy and Tiffany, supra, describe a receptor having a high degree of homology to the receptor of FIG. 2. […] This could be readily accomplished by routine screening methods.

IL8R-B = settings: background, Murphy and Tiffany; read-out: affinity of IL8R-B for ligand; cited from earlier work
human neutrophils = assay: Inhibition of 125I-IL-8 binding to human neutrophils; settings: 475 pM of MGSA, no antibody
Source text: Cells were washed twice in the HBSS medium and resuspended to be 1×10^6 cells/ml.

[7] = tested on: receptor of FIG. 2 (IL-8 receptor); assay: MGSA binding to the receptor of FIG. 2; set-up: species or system human
Source text: Murphy and Tiffany, supra, describe a receptor having a high degree of homology to the receptor of FIG. 2. […] This could be readily accomplished by routine screening methods. […] On the other hand, antibodies that can discriminate between the FIG. 2 and Murphy and Tiffany receptors and bind only to one or the other are useful in diagnosis. The receptor of FIG. 2 binds MGSA poorly, in contrast to the Murphy and Tiffany receptor.

Row | Molecule | response of recombinant cells bearing the receptor [1] | response of recombinant cells bearing the receptor [2] | recognition of ligand by IL8R-A (IL8R-A) | also measured
1 | MCP1: PF4 superfamily ligand tested on cells bearing the FIG. 4 and 5 receptors | do not respond | do not respond |  | 
2 | CSCC[C@H](NC=O)C(=O)N[C@@H](CC(C)C)C(=O)N[C@@H](Cc1ccccc1)C(=O)O [fMLP, f-Met-Leu-Phe, reference compound] |  |  | does not recognize | intracellular Ca++ response [3]: No response; competition of 125I-IL-8 binding [4]: no competition; intracellular Ca++ response (human fMLP receptor): respond; binding of 3H-fMLP to the expressed IL-8 receptor (expressed IL-8 receptor): failed to detect any binding
3 | MCAF: macrophage chemotactic and activating factor, C-C peptide |  |  | does not recognize | 
4 | TNF-α |  |  | does not recognize | 
5 | IL-8: Purified human 72 amino acid IL-8 made in E. coli | do not respond | do not respond |  | intracellular Ca++ response [3]: clear transient increase; Kd (IL8R-A; background, read-out: affinity of IL8R-A for ligand): 2 nM; binding of 125I-IL-8 to the expressed human fMLP receptor [5]: failed to detect any binding; intracellular Ca++ response (human fMLP receptor): not; IL-8 affinity compared with the receptor of FIG. 2 [6]: as high or higher; Kd (IL8R-B): 2 nM
6 | CCCCC/C=C\C[C@@H](O)/C=C/C=C/C=C\[C@@H](O)CCCC(=O)O [LTB4, reference compound] |  |  | does not recognize | 
7 | MGSA: NAP-3 (melanoma growth-stimulating activity [MGSA]/gro), C-X-C member of the PF4 superfamily | do not respond | do not respond | does recognize | inhibition of IL-8 binding to human neutrophils by MGSA (human neutrophils): approximately 50%; binding of MGSA [7]: poorly; Kd ([6]; read-out: affinity for MGSA): 1 to 10 nM; Kd (IL8R-B): 2 nM
8 | NAP-2: neutrophil activating protein-2, C-X-C family member (protein, UniProt P02775 59-128, looked up, Neutrophil-activating peptide 2) Neutrophil-activating peptide …: AELRCMCIKTTSGIHPKNIQSLEVIGKGTHCNQVEVIATLKDGRKICLDPDAPRIKKIVQKKLAGDESAD |  |  | does recognize | 
9 | C5α: neutrophil chemoattractant C5a (protein, UniProt P01031 678-751, looked up, C5a anaphylatoxin, neutrophil chemoattractant C5a) C5a anaphylatoxin: TLQKKIEEIAAKYKHSVVKKCCYDGACVNNDETCEQRAARISLGPRCIKAFTECCVVASQLRANISHKDMQLGR |  |  | does not recognize | 
10 | Rantes: C-C peptide of the platelet factor 4 superfamily (protein) SPYSSDTTPCCFAYIARPLPRAHIKEYFYTSGKCSNPAVVFVTRKNRQVCANPEKKWVREYINSLEMS | do not respond | do not respond |  | 
